Where two headings read alike, the source gives them in different places. Residues, ends and D or L forms follow the SMILES beside them.
What was measured:
ACE [1] = conditions: cited from earlier work
Description: Table 1 The summary of ACE inhibitory peptides by conventional approach and affinity purification on different medium. | column: IC50 || Table 2 The summary of ACE inhibitory peptides have similar structure with purified peptides KNFL from food protein. | column: IC50 (μM) || Researchers have investigated the structure-activity relationship of ACE inhibitor peptides, such as the peptide chain length, amino acid sequence, C- terminal, and N-terminal amino acid sequence. Most of the ACE inhibitors are reported to have small molecular weights (2–12 amino acids), and there are four amino acids in the newly identified peptide KNFL. […] In this study, the C-terminal amino acids (phenylalanine and leucine) of the KNFL peptide have stro ...

[2] = synthetic ACE inhibitors in hypertension treatment; ref [1]; cited from earlier work
Description: As a zinc-dependent carboxypeptidase, angiotensin-I-converting enzyme (ACE EC 3.4.15.1) is prolific in biological tissues and blood, and plays an important role in modulating blood pressure. ACE cannot only convert angiotensin I to angiotensin II (a potent vasoconstrictor), but it can also degrade the vasodilator bradykinin [2]. ACE inhibitors are, thus, a class of drugs frequently used in the treatment of hypertension. Synthetic ACE inhibitors, including captopril, benazepril, enalapril, and perindopril are associated with various side effects, such as cough, taste disturbances, aller ...

ACE [3] = conditions: cited from earlier work; remark: listed apart in the source
Description: ACE inhibitor peptides have been reported with competitive, noncompetitive, uncompetitive, and mixed modes of interaction. The kinetic constants were estimated by using nonlinear regression analysis (SPSS, version 26.0, Inc., Chicago, IL, USA) and the nonlinear fitting plots were shown in Figure 8. […] Mixed-type inhibitors interact with the non-catalytic site of the e ...

[4] = amino acid residue; source not given; cited from earlier work
ACE [5] = biological target: T1, ACE (Oryctolagus cuniculus, UniProt P12822); assay: Inhibition pattern / kinetics of ACE in presence of KNFL; format: biochemical, rabbit; conditions: for Vmax: nonlinear regression, control 55.492
T1 construct: Angiotensin I-converting enzyme (ACE, EC3.4.15.1) from rabbit lung; purchased Sigma-Aldrich Co. (St. Louis, MO, USA); host or cells: rabbit lung (tissue-derived)
T1 sequence (P12822 34-1310): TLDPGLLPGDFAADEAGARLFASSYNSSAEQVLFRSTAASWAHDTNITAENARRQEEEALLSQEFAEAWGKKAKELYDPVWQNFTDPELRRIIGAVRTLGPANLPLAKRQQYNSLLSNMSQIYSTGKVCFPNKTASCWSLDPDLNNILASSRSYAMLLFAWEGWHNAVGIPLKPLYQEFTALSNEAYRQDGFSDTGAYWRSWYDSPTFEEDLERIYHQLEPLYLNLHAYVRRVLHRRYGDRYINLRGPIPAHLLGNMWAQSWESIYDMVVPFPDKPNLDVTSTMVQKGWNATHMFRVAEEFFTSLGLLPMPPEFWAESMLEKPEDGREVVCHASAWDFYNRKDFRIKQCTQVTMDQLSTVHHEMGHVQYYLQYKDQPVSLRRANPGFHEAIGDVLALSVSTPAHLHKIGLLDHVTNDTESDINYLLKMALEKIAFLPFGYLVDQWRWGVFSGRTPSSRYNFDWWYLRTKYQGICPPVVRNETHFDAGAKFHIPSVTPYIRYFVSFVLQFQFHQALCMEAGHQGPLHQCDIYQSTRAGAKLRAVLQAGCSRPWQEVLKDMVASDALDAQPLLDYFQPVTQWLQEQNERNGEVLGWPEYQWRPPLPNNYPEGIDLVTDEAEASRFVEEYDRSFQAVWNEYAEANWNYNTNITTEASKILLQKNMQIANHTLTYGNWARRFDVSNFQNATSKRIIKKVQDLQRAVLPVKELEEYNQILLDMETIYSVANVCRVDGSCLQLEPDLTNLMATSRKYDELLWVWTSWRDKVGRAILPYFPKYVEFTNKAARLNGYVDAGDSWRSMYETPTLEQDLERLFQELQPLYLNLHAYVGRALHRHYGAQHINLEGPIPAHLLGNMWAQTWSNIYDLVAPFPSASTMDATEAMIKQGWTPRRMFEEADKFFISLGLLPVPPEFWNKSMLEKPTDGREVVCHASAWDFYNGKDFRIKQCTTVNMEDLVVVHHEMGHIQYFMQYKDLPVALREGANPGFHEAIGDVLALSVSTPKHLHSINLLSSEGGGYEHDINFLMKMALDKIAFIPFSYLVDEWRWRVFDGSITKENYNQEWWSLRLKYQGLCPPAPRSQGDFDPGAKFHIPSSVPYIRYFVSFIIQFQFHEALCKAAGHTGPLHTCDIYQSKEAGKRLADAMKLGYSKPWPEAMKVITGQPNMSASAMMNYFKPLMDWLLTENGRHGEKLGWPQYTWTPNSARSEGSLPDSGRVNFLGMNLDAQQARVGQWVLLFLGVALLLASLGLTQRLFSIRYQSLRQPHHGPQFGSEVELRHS
Description: ACE inhibitor peptides have been reported with competitive, noncompetitive, uncompetitive, and mixed modes of interaction. The kinetic constants were estimated by using nonlinear regression analysis (SPSS, version 26.0, Inc., Chicago, IL, USA) and the nonlinear fitting plots were shown in Figure 8. […] Mixed-type inhibitors interact with the non-catalytic site of the enzyme and combine with the enzyme to produce an ACE–HHL(Hip-His-Leu) peptide complex which might leads to conformational changes and a decrease in substrate affinity at the active site resulting in loss of activity. A great many of ACE inhibitor peptides acted in a mixed-type manner. For example, the MAINPSKENLCSTFCK peptide produced from casein hydrolysates, and EVSQGRP, VSRHFASYAN and SAAVGSP generated from Stichopus horrens.
Angiotensin I-converting enzyme (ACE, EC3.4.15.1) from rabbit lung, HHL (Hippuryl-L-histidyl-L-leucine), were obtained from Sigma-Aldrich Co. (St. Louis, MO, USA). The ACE inhibitor KNFL (Lys-Asn-Phe-Leu) was supplied by GL Biochem Ltd. (Shanghai, China). Iron chloride hexahydrate (FeCl3·6H2O), ethylene glycol (EG), diethylene glycol (DEG), sodium acetate anhydrous (NaAc), and zinc acetate dehydrate Zn(CH3COO)2·2H2O were all obtained from Sinopharm Chemical Reagent Co., Ltd. (Shanghai, China). Polyacrylic acid (PAA), imidazolate-2-carboxyaldehyde (2-ICA, 98 %), sodium acrylate (NaAA) were purchased from Macklin Biochemical Co., Ltd (Shanghai, China). The other chemicals and reagents used were of AR grade and used without further purification.
ACE activity was evaluated by measuring the amount of hippuric acid (HA). The assay mixture (0.3 mL) consisted of 130 µL BBS buffer pH 8.3 ([…], containing 0.3 M NaCl), 40 µL HHL (5 mM), and different amounts of the free and immobilized ACE. Incubation was carried out at 37 °C for 10 min and was terminated by addition of HCl (0.1 mL, 1 M). The HA content of the mixture was determined by RP-HPLC (Agilent 1260) at 228 nm with a DAD detector. One unit of ACE enzyme activity (U) was defined as the amount of enzyme catalyzing HHL to generate 1 µM of HA per minute under the experimental conditions.

[6] = Volutharpa ampullaceal perryi, affinity purification/ Zn-SBA-15-ACE, ref [12]
[7] = in the presence of KNFL (192 and 384 µM)
[8] = Wakame, conventional approach, ref [28]
[9] = generated from Stichopus horrens, ref [51]

## RYRP
ACE [1]; lizard fish, affinity purification/ IMAC-Ni^2+, ref [39]
  IC50: 52 µM

## C[C@H](CS)C(=O)N1CCC[C@H]1C(=O)O [captopril]
[2]
  side effects: cough, taste disturbances, allergic reactions, and skin rashes

## CCOC(=O)[C@H](CCc1ccccc1)N[C@H]1CCc2ccccc2N(CC(=O)O)C1=O [benazepril]
[2]
  side effects: cough, taste disturbances, allergic reactions, and skin rashes

## IVTNWDDMGK
ACE [1]; [6]
  IC50: 2080 µM

## MAINPSKENLCSTFCK [peptide produced from casein hydrolysates]
ACE [3]; produced from casein hydrolysates, ref [50]
  inhibition mode: mixed-type

## LLYQEPVLGPVR
ACE [1]; casein, affinity purification/ IMAM @ mPEG, ref [9]
  IC50: 274 ± 5 µM

## KNGDGY
ACE [1]; Cuttlefish, ref [49]
  IC50: 51.6 µM

## RVCLP
ACE [1]; lizard fish, conventional approach, ref [29]
  IC50: 175 µM

## VGPAGRRG
ACE [1]; [6]
  IC50: 4660 µM

## N[C@@H](CO)C(=O)O [serine]
[4]
  Lipophilicity Parameters: −0.8

## CC(C)C[C@H](NC(=O)[C@H](Cc1ccccc1)NC(=O)[C@H](CC(N)=O)NC(=O)[C@@H](N)CCCCN)C(=O)O [KNFL, Lys-Asn-Phe-Leu] (H-KNFL-OH; N-terminus and C-terminus assumed)
ACE [5]; KNFL at 192 µM
  Vmax: 45.958 µM/L·min
ACE [5]; KNFL at 384 µM
  Vmax: 24.105 µM/L·min
ACE [5]; b33/b37: nonlinear regression, b1: Lineweaver–Burk analysis
  inhibition pattern: mixed-type inhibition
ACE [5]; [7]
  effect on Km: increased
  effect on Vmax: decreased in a dose-dependent pattern

## NCCCC[C@H](N)C(=O)O [lysine]
[4]
  Lipophilicity Parameters: −3.9

## CCC[C@H](N[C@@H](C)C(=O)N1[C@H](C(=O)O)C[C@@H]2CCCC[C@@H]21)C(=O)OCC [perindopril]
[2]
  side effects: cough, taste disturbances, allergic reactions, and skin rashes

## CCOC(=O)[C@H](CCc1ccccc1)N[C@@H](C)C(=O)N1CCC[C@H]1C(=O)O [enalapril]
[2]
  side effects: cough, taste disturbances, allergic reactions, and skin rashes

## YNKL
ACE [1]; [8]
  IC50: 21 µM

## N[C@@H](Cc1c[nH]cn1)C(=O)O [histidine]
[4]
  Lipophilicity Parameters: −3.2

## N[C@@H](CC(=O)O)C(=O)O [aspartic acid]
[4]
  Lipophilicity Parameters: −3.5

## VSRHFASYAN [peptide generated from Stichopus horrens]
ACE [3]; [9]
  inhibition mode: mixed-type

## CC(C)C[C@H](N)C(=O)O [leucine]
[4]
  Lipophilicity Parameters: 3.8

## WYLHYA
ACE [1]; casein, affinity purification/ IMAC-Ni^2+, ref [41]
  IC50: 16.2 µM

## YKYY
ACE [1]; [8]
  IC50: 64.2 µM

## KFYG
ACE [1]; [8]
  IC50: 90.5 µM

## HLHT
ACE [1]; Pinctada fucata martensii, affinity purification/ IMAM @ mPEG, ref [10]
  IC50: 458.1 ± 3.24 µM

## NC(=O)C[C@H](N)C(=O)O [asparagine]
[4]
  Lipophilicity Parameters: −3.5

## GMKCAF
ACE [1]; lizard fish, affinity purification/ Magnetic agarose-ACE, ref [6]
  IC50: 45.7 ± 1.1 µM

## NC(=O)CC[C@H](N)C(=O)O [glutamine]
[4]
  Lipophilicity Parameters: −3.5

## AIYK
ACE [1]; [8]
  IC50: 213 µM

## SAAVGSP [peptide generated from Stichopus horrens]
ACE [3]; [9]
  inhibition mode: mixed-type

## N=C(N)NCCC[C@H](N)C(=O)O [arginine]
[4]
  Lipophilicity Parameters: −4.5

## N[C@@H](CCC(=O)O)C(=O)O [glutamic acid]
[4]
  Lipophilicity Parameters: −3.5

## EVSQGRP [peptide generated from Stichopus horrens]
ACE [3]; [9]
  inhibition mode: mixed-type
